This is an account of results in ChEMBL document CHEMBL1127955, “Enantioselective synthesis of the optical isomers of broad-spectrum orally active antifungal azoles, Sch 42538 and Sch 45012” (1994).

Holding throughout (type): functional
Assay [1] concerns Mus musculus. Description: Compound was tested for the colony forming units of Aspergillus flavus in mice at a dose of 100 mg/kg expressed as geometric mean.
The test system of assay [2] is Mus musculus. Description: Compound was tested for the oral activity in CF-1 mice infected with C. Albicans at a dose of 50 mg/kg of 4 days post infection. The settings on record: for Survival: 50 mg/kg; for survival at 50 mg/kg: Mus musculus, po, 96 h.
The species named for assay [3] is Mus musculus. Description: Compound was tested for the oral activity in CF-1 mice infected with Aspergillus flavus by sabouraud dextrose broth of pH 5.7 duration of 72 h. Set-up: unit not given here.
For assay [4], the species on record is Mus musculus. Description: Compound was tested for the oral activity in CF-1 mice infected with C. Albicans in eagles essential medium at pH 7.0 duration of 48 h. Set-up: unit not given here.
Assay [5] relates to Mus musculus. Description: Compound was tested for the oral activity in CF-1 mice infected with C. Albicans at a dose of 10 mg/kg of 4 days post infection.
Assay [6] has as its system Mus musculus. Description: Compound was tested for the colony forming units of Aspergillus flavus in mice at a dose of 66 mg/kg expressed as geometric mean.
Assay [7] relates to Mus musculus. Description: Compound was tested for the colony forming units of C. Albicans in mice at a dose of 10 mg/kg expressed as geometric mean.
The test system of assay [8] is Mus musculus. Description: Compound was tested for the oral activity in CF-1 mice infected with C. Albicans at a dose of 25 mg/kg of 4 days post infection. Particulars: for Survival: 25 mg/kg; for survival at 25 mg/kg: Mus musculus, po, 96 h.
The test system of assay [9] is Mus musculus. Description: Compound was tested for the oral activity in CF-1 mice infected with Aspergillus flavus at a dose of 100 mg/kg of 4 days post infection. Particulars: for Survival: 100 mg/kg; for survival at 100 mg/kg: Mus musculus, po, 96 h.
Assay [10] relates to Mus musculus. Description: Compound was tested for the colony forming units of C. Albicans in mice at a dose of 50 mg/kg expressed as geometric mean.
In assay [11] the test system is Mus musculus. Description: Compound was tested for the oral activity in CF-1 mice infected with Aspergillus flavus at a dose of 66 mg/kg of 4 days post infection. The settings on record: for Survival: 66 mg/kg; for survival at 66 mg/kg: Mus musculus, po, 96 h.
Assay [12] has as its system Mus musculus. Description: Compound was tested for the colony forming units of C. Albicans in mice at a dose of 25 mg/kg expressed as geometric mean.

Values joined by “and” are separate entries in the source; they are usually repeats but may differ in a detail not shown here. Identical values can stand only once.

As for `CCC(C)n1ncn(-c2ccc(N3CCN(c4ccc(OC[C@@H]5COC(Cn6cncn6)(c6ccc(F)cc6F)C5)cc4)CC3)cc2)c1=O` (single isomer, unassigned), the CFU in the assay with Mus musculus [1] is 1.95; in the assay with Mus musculus [6], 2.25; in the assay with Mus musculus [7] (10 mg/kg) it was 7.42 and 5.92; with Mus musculus [10] (50 mg/kg), 4.99; in the assay with Mus musculus [12] (25 mg/kg), 5.14. For the same compound, the Survival in the assay with Mus musculus [2] is 100%; in the assay on Mus musculus [5] (10 mg/kg), 40% and 90%; with Mus musculus [8] it was 100%; with Mus musculus [9], 100%; in the assay with Mus musculus [11], 50%. The MIC stood at 0.0625 in the assay filed under Mus musculus [3] and 0.0039 in the assay listed under Mus musculus [4].

As to `CC[C@@H](C)n1ncn(-c2ccc(N3CCN(c4ccc(OC[C@@H]5COC(Cn6cncn6)(c6ccc(F)cc6F)C5)cc4)CC3)cc2)c1=O` (single isomer, unassigned), the Survival in the assay with Mus musculus [2] is 0%; with Mus musculus [8], 0%; in the assay on Mus musculus [9], 10%; with Mus musculus [11] it was 0%. The MIC in the assay filed under Mus musculus [3] was above 8; in the assay filed under Mus musculus [4], 0.0313. For the same compound, the CFU with Mus musculus [10] (50 mg/kg) and with Mus musculus [12] (25 mg/kg) was 9 in each case.

With `CCC(C)n1ncn(-c2ccc(N3CCN(c4ccc(OC[C@H]5CO[C@](Cn6cncn6)(c6ccc(F)cc6F)O5)cc4)CC3)cc2)c1=O` (single isomer, unassigned) [SAPERCONAZOLE], the Survival in the assay with Mus musculus [2] was 20% and 0%. In addition, the MIC in the assay listed under Mus musculus [3] worked out at 0.0313; in the assay listed under Mus musculus [4], 0.0039. In the assay on Mus musculus [9], this compound showed a survival at 100 mg/kg of 0%. In addition, the CFU with Mus musculus [10] (50 mg/kg) was 8.2 and 9.

In the assay on Mus musculus [2], `CC[C@H](C)n1ncn(-c2ccc(N3CCN(c4ccc(OC[C@@H]5COC(Cn6cncn6)(c6ccc(F)cc6F)C5)cc4)CC3)cc2)c1=O` (single isomer, unassigned) [SCH-49999] displayed a survival at 50 mg/kg of 20%. Moreover, the figures for the MIC in the assay filed under Mus musculus [3] and in the assay filed under Mus musculus [4] were above 8 and 0.0625, respectively. The compound further came in with a survival at 25 mg/kg in the assay with Mus musculus [8] of 0%. The compound also had a survival at 100 mg/kg in the assay on Mus musculus [9] of 20%. Also, the CFU is on record as 7.84 in the assay on Mus musculus [10] and 9 with Mus musculus [12]. Further, in the assay on Mus musculus [11], the survival at 66 mg/kg is 0%.

As to `CCC(C)n1ncn(-c2ccc(N3CCN(c4ccc(OC[C@@H]5CO[C@@](Cn6cncn6)(c6ccc(Cl)cc6Cl)O5)cc4)CC3)cc2)c1=O` (stereo partly drawn) [ITRACONAZOLE], the survival at 50 mg/kg with Mus musculus [2] was 60%. The MIC was determined as 0.125 in the assay listed under Mus musculus [3] and 0.0078 in the assay listed under Mus musculus [4]. This compound came in with a survival at 10 mg/kg with Mus musculus [5] (Mus musculus, po, 96 h) of 10%. In addition, the results for the CFU with Mus musculus [7], with Mus musculus [10] and in the assay on Mus musculus [12] were 8.87, 6.68 and 9, respectively. In addition, the survival at 25 mg/kg with Mus musculus [8] came out at 0%. In the assay with Mus musculus [9], this compound yielded a survival at 100 mg/kg of 20%. In addition, the survival at 66 mg/kg in the assay on Mus musculus [11] was 0%.
